Experiments:
[1] = Body weight of hens through the molt and production period; assay type: in vivo, single combed White Leghorn hens
Procedure: During the experiment, two birds were assigned to each cage (12"×18"). The hens were maintained in their cages for two weeks prior to the molt. They received a 17 hour light: 7 hour dark photoperiod throughout this phase of the experiment. During this time, the following parameters were measured:(a) body weight (weekly); (b) feed consumption (all hens received a common layer ration, and the feed consumed during this two week period was measured); (C) production records (daily); and (d), total egg weight, egg shell weight, and egg specific gravity (measured on three consecutive days each week). Serum samples were taken once, from 10 randomly selected hens from each treatment group, and saved for future study. After the two week pre-molt adjustment period, the hens were randomly assigned to each of eight different groups. These treatment groups were as follows: (1) control, (2) forced molt, (3) chemical molt-injected, (4) vehicle control-injected, (5) chemical molt-microcapsules A, (6) vehicle control-microcapsules A, (7) chemical molt-microcapsules B, and (8) vehicle control-microcapsules B. The hens then received a seven day pre-molt treatment of a 24 hour light, zero hour dark photoperiod. On day 14 of the experiment the photoperiod was then reduced to natural day length for all treatments. Feed was made available ad libitum for all groups except the forced molt group. The forced molt group was deprived of food, but not of water, until a 30% body weight loss occurred (10 days of fasting). [D-[…] ]LHRH was used as the LHRH receptor ligand for the chemical molt groups. The "chemical molt-injected" group received intramuscular (breast) injections of 25 micrograms/day of [D-[…] ]LHRH for 10 consecutive days beginning on day 14. Alternate pectoral (breast) areas were injected each day. The "chemical molt-microcapsule" groups received a single intramuscular (breast) injection of microencapsulated [D-[…] ]LHRH on day zero. This preparation of microcapsules provided a controlled release of 25 micrograms [D-[…] ]LHRH per day for 15 consecutive days. For all treatments, body weights were measured at day zero and every three days thereafter, until the forced molt group achieved a 30% weight loss. Serum samples were periodically collected from 10 hens randomly selected from each group, and saved for future analysis. The same 10 hens from each group were bled at each collection. On day 14, the microcapsule injected groups received intramuscular injections of lactide/glycolide copolymer microcapsules which had [D-[…] ]LHRH incorporated therein. The ligand-containing microcapsules administered the "Microcapsules A" group were prepared and supplied by Debiopharm (Lausanne, Switzerland). These microcapsules were prepared by a phase-separation process to produce a free-flowing powder of spherical particles consisting of [D-[…] ]LHRH (2% wt/wt) distributed within a polymeric matrix of 53:47(mol %) poly(DL-lactide-co-glycolide) (98% wt/wt) with an inherent viscosity of 0.7 dl/g. The microcapsules were 50 micrometers or less in diameter. […] Photomicrographs of similar microcapsules are presented in T. W. Redding, et al., Proc. Natl. Acad. Sci. […]. 1984). Microcapsules were suspended in disposable syringes in vehicle containing 2% carboxymethyl cellulose and 1% "TWEEN 20" in water. After thoroughly mixing the suspension, aliquots calculated to have released a dose of 25 micrograms/day for 15 consecutive days were injected into the breast muscle of the hens. We weighed the microcapsules directly into disposable 3 ml syringes. The plunger of a plugged syringe containing microcapsules (without vehicle) was pulled back to the 1.5-2 cc mark. The hub of the syringe was then placed against a vortex mixer and the syringe vortexed rapidly for about 20 seconds, or until most of the clumps of microbeads were broken and distributed along the barrel of the syringe. […]

[2] = test system: single combed White Leghorn hens; assay: Egg parameters (specific gravity, total egg weight, shell weight); assay type: in vivo
Procedure: During the experiment, two birds were assigned to each cage (12"×18"). The hens were maintained in their cages for two weeks prior to the molt. They received a 17 hour light: 7 hour dark photoperiod throughout this phase of the experiment. During this time, the following parameters were measured:(a) body weight (weekly); (b) feed consumption (all hens received a common layer ration, and the feed consumed during this two week period was measured); (C) production records (daily); and (d), total egg weight, egg shell weight, and egg specific gravity (measured on three consecutive days each week). Serum samples were taken once, from 10 randomly selected hens from each treatment group, and saved for future study.
After the two week pre-molt adjustment period, the hens were randomly assigned to each of eight different groups. These treatment groups were as follows: (1) control, (2) forced molt, (3) chemical molt-injected, (4) vehicle control-injected, (5) chemical molt-microcapsules A, (6) vehicle control-microcapsules A, (7) chemical molt-microcapsules B, and (8) vehicle control-microcapsules B.
[D-Trp^6 ]LHRH was used as the LHRH receptor ligand for the chemical molt groups. The "chemical molt-injected" group received intramuscular (breast) injections of 25 micrograms/day of [D-Trp^6 ]LHRH for 10 consecutive days beginning on day 14. Alternate pectoral (breast) areas were injected each day. The "chemical molt-microcapsule" groups received a single intramuscular (breast) injection of microencapsulated [D-Trp^6 ]LHRH on day zero. This preparation of microcapsules provided a controlled release of 25 micrograms [D-Trp^6 ]LHRH per day for 15 consecutive days.
On day 14, the microcapsule injected groups received intramuscular injections of lactide/glycolide copolymer microcapsules which had [D-Trp^6 ]LHRH incorporated therein. The ligand-containing microcapsules administered the "Microcapsules A" group were prepared and supplied by Debiopharm (Lausanne, Switzerland). These microcapsules were prepared by a phase-separation process to produce a free-flowing powder of spherical particles consisting of [D-Trp^6 ]LHRH (2% wt/wt) distributed within a polymeric matrix of 53:47(mol %) poly(DL-lactide-co-glycolide) (98% wt/wt) with an inherent viscosity of 0.7 dl/g. The microcapsules were 50 micrometers or less in diameter. […] Photomicrographs of similar microcapsules are presented in T. W. Redding, et al., Proc. Natl. Acad. Sci. U.S.A., 81, 5845 (Sept. 1984).
The remaining hens were maintained for a three month production period, during which the following parameters were measured: a. body weight (weekly for the first month and then twice a month); b. feed consumption (measured weekly); c. egg production (measured daily); and d. egg weight, shell weight and specific gravity (measured for three consecutive days each week for the first month, and then three consecutive days every two weeks).

[3] = Week 1 = days zero-2, before treatment
[4] = Week 2 = days 6-8, before treatment

Substance: [D-Trp^6 ]LHRH [D-Trp^6 --LHRH]
- MEAN BODY WEIGHT ([1]; Day 5, before treatment): 1.669 kg
- MEAN BODY WEIGHT ([1]; Day 12, before treatment (treatment started day 13/14)): 1.722 kg
- MEAN BODY WEIGHT ([1]; Day 17, 25 micrograms/day i.m.): 1.765 kg
- MEAN BODY WEIGHT ([1]; Day 22, 25 micrograms/day i.m.): 1.704 kg
- MEAN BODY WEIGHT ([1]; Day 27): 1.637 kg
- MEAN BODY WEIGHT ([1]; Day 33): 1.654 kg
- MEAN BODY WEIGHT ([1]; Day 40): 1.747 kg
- MEAN BODY WEIGHT ([1]; Day 47): 1.760 kg
- MEAN BODY WEIGHT ([1]; Day 54): 1.761 kg
- MEAN BODY WEIGHT ([1]; Day 61): 1.802 kg
- MEAN BODY WEIGHT ([1]; Day 75): 1.838 kg
- MEAN BODY WEIGHT ([1]; Day Zero, before treatment): 1.720 kg
- EGG SHELL WEIGHT [2, 3]: 5.46 g
- EGG SPECIFIC GRAVITY [2, 3]: 1.079 (g/cm)^3
- TOTAL EGG WEIGHT [2, 3]: 66.04 g
- EGG SHELL WEIGHT [2, 4]: 5.82 g
- EGG SPECIFIC GRAVITY [2, 4]: 1.082 (g/cm)^3
- TOTAL EGG WEIGHT [2, 4]: 67.72 g
- EGG SHELL WEIGHT ([2]; Week 3 = days 40-42): 5.15 g
- EGG SPECIFIC GRAVITY ([2]; Week 3 = days 40-42): 1.075 (g/cm)^3
- TOTAL EGG WEIGHT ([2]; Week 3 = days 40-42): 64.38 g
- EGG SHELL WEIGHT ([2]; Week 4 = days 47-49): 5.61 g
- EGG SPECIFIC GRAVITY ([2]; Week 4 = days 47-49): 1.079 (g/cm)^3
- TOTAL EGG WEIGHT ([2]; Week 4 = days 47-49): 68.27 g
- EGG SHELL WEIGHT ([2]; Week 5 = days 54-56): 5.79 g
- EGG SPECIFIC GRAVITY ([2]; Week 5 = days 54-56): 1.079 (g/cm)^3
- TOTAL EGG WEIGHT ([2]; Week 5 = days 54-56): 68.81 g
- EGG SHELL WEIGHT ([2]; Week 6 = days 61-63): 5.65 g
- EGG SPECIFIC GRAVITY ([2]; Week 6 = days 61-63): 1.080 (g/cm)^3
- TOTAL EGG WEIGHT ([2]; Week 6 = days 61-63): 67.4 g
- EGG SHELL WEIGHT ([2]; Week 7 = days 75-77): 5.59 g
- EGG SPECIFIC GRAVITY ([2]; Week 7 = days 75-77): 1.079 (g/cm)^3
- TOTAL EGG WEIGHT ([2]; Week 7 = days 75-77): 67.19 g
- quality of eggs produced after the molt ([2]; compared with conventional Forced Molted Group): as good in quality as the eggs produced by the conventional Forced Molted Group

From patent US4761398A, “Method of inducing birds to molt” (Embrex, Inc., priority 1986, dated 1988)
